PMC12194779, “Synergistic Insecticidal Activity of Plant Volatile Compounds: Impact on Neurotransmission and Detoxification Enzymes in Sitophilus zeamais” (Insects, 2025)
Values after ≈ are worked out from the molar mass of the structure shown. Values joined by “and” are separate entries in the source; they are usually repeats but may differ in a detail not shown here. Equal values may be shown once. Read-outs that look alike come from different tables or passages of the source.

Tests used:
[1] = test system: S. zeamais; conditions: cited from earlier work; for LC50 in vapor-phase assays without physical barriers: previous reports
[2] = test system: Sitophilus zeamais; test: whole plant or invertebrate; conditions: for EC90: read-out: Fumigant Toxicity LC90 (95% FL)
Experimental: (§1) The insects used in this study were Sitophilus zeamais Motschulsky (Coleoptera: Curculionidae), identified by the Instituto Colombiano Agropecuario (ICA) under report number R3823M0000425. […] The adult insects used in all the experiments were 6 to 10 days post-emergence.
The treated disks were affixed to the inner surface of the screw cap of 22 mL glass vials. […] All treatments were performed in two independent experiments, each with five replicates.
(§2) Mixtures predicted by the RSM were prepared based on mole fractions. […] Four replicates were performed for each treatment and control across two independent experimental runs.
Dose reduction indices (DRIs) were also calculated to estimate how much the dose of each compound in a synergistic combination could be reduced to achieve a 50% effect (Equation (4)). DRIs were interpreted as favorable when >1, neutral at 1, and unfavorable when <1. Values above the log DRI = 0 line indicate favorable dose reductions.(4) (IRD)i=CL50i(fax)i/(1−(fax)i)^1/mi/(D)i

[3] = test system: glutathione S-transferase (GST) activity in S. zeamais; test: GST activity assay (modified Habig) with S. zeamais protein extract; format: biochemical, Sitophilus zeamais; conditions: 120 mg/L
Experimental: (§3) Enzymatic assays were performed in the assay buffer, consisting of 0.1 M potassium phosphate buffer (pH 7.2). The compounds and mixtures evaluated in the in vitro assays were prepared in the same buffer supplemented with 0.5% (v/v) Triton X-100 (Sigma-Aldrich®, Saint Louis, MO, USA).
(§4) A modified version of the method described by Oviedo et al. was used. Adults of S. zeamais (8 g; ~3125 insects) were frozen in liquid nitrogen, homogenized in a 1:10 ratio with assay buffer, and centrifuged at 13,000× g for 60 min at 4 °C. The supernatant was filtered, and 20 mM benzamidine was added. The extracts were stored in 5 mL aliquots at −20 °C. Preliminary assays were performed to quantify the specific activity of AChE (0.02–1.00 U/mL), GST (0.1–0.8 U/mL), and CAT (0.1–25 U/mL), and to optimize assay conditions (enzyme dilution: 1/8 to 1% v/v; substrate concentrations: 2 × km or within assay linearity). Each experiment was performed independently three times, with three technical replicates per experiment.
A modified version of Habig’s method was used. The protein extract (50 µL; 0.59 U/mL) was incubated with 50 µL of the compound or mixture (120 mg/L), followed by 50 µL each of CDNB and reduced glutathione (GSH). Kinetic absorbance was measured at 340 nm for 8 min. Blanks (without substrate) and quercetin (positive control) were included. Inhibition (%) was calculated using Equation (5), and treatment differences were evaluated via parametric ANOVA (α = 0.05) in GraphPad Prism 8.0.2 [42, 43]. Each experiment was performed independently three times, with three technical replicates per experiment.(5) % Inhibition=1−Am−AB/AC ×100 where Am is the absorbance of the sample, AB is the absorbance of the blank, and AC is the absorbance of the negative control.

[4] = test system: catalase (CAT) activity in S. zeamais; test: CAT activity assay (adapted Sinha) with S. zeamais protein extract; format: biochemical, Sitophilus zeamais; conditions: 120 mg/L
Experimental: as §3, §4
Sinha’s method was adapted. In Eppendorf tubes, 100 µL of protein extract (24.77 U/mL) was mixed with 100 µL of the compound or mixture (120 mg/L) and incubated at 37 °C for 15 min. Then, 200 µL of H2O2 was added and shaken for 2.5 min. The reaction was stopped by adding 600 µL of K2Cr2O7, followed by incubation at 100 °C for 10 min. A 200 µL aliquot was transferred to a 96-well plate, and absorbance was recorded at 570 nm. Blanks and sodium azide (positive control) were used. The percentage of inhibition was calculated using Equation (5). Differences among treatments were analyzed via ANOVA (α = 0.05) in GraphPad Prism. Each experiment was performed independently three times, with three technical replicates per experiment.

[5] = test system: Sitophilus zeamais; format: in vivo; conditions: for Contact Toxicity LD90 (95% FL) / Contact Toxicity LD50 (95% FL): topical, 24 h after exposure; for Contact Toxicity LD50i (LC-95%): mixtures and their components (Table 3)
Experimental: as §1
Groups of 10 insects, previously placed in Petri dishes, were immobilized by exposure to low temperatures (0 °C). An initial dose of 50.0 µg per adult was applied topically to the dorsal thorax of each insect using aliquots of 0.20 µL from 0.25 mg/µL solutions in n-hexane. […] All treatments were performed in two independent experiments, each with four replicates. Insect mortality was assessed after 24 h, and mortality percentages were calculated using Abbott’s correction formula (Equation (1)).
as §2
Dose reduction indices (DRIs) were also calculated to estimate how much the dose of each compound in a synergistic combination could be reduced to achieve a 50% effect (Equation (4)). DRIs were interpreted as favorable when >1, neutral at 1, and unfavorable when <1.

[6] = test system: AChE of S. zeamais; test: AChE activity assay (modified Ellman) with S. zeamais protein extract; format: biochemical, Sitophilus zeamais; set-up: key to AChE Effect Inhibitor Type: C: competitive inhibitor; NC: non-competitive inhibitor; conditions: for AChE Effect Inhibitor Type: Lineweaver–Burk; for AChE Effect IC50 ± SD / Ki: S. zeamais protein extract; for Ki: read-out: AChE Effect ki ± SD (inhibitory constant); for AChE inhibition: 120 mg/L
Experimental: The compounds and mixtures evaluated in the in vitro assays were prepared in the same buffer supplemented with 0.5% (v/v) Triton X-100 (Sigma-Aldrich®, Saint Louis, MO, USA).
The supernatant was filtered, and 20 mM benzamidine was added. The extracts were stored in 5 mL aliquots at −20 °C. Preliminary assays were performed to quantify the specific activity of AChE (0.02–1.00 U/mL), GST (0.1–0.8 U/mL), and CAT (0.1–25 U/mL), and to optimize assay conditions (enzyme dilution: 1/8 to 1% v/v; substrate concentrations: 2 × km or within assay linearity).
Then, 50 µL of DTNB and 50 µL of ATChI were added. […] Inhibition percentages were calculated using Equation (5).

[7] = set-up: method as in doi:10.1016/B978-0-12-819092-0.00021-2; conditions: cited from earlier work
[8] = test system: S. zeamais; set-up: method as in PMID 21173724, PMID 22236213; conditions: cited from earlier work
[9] = Sitophilus zeamais, in Homo sapiens, 24 h, read-out: Fumigant Toxicity LC50 (95% FL)
[10] = Sitophilus zeamais, in Homo sapiens, 24 h
[11] = Sitophilus zeamais, read-out: LC50 values, fumigant activity (Figure 3)
[12] = Sitophilus zeamais, 24 h, read-out: Fumigant Toxicity LC50i (LC-95%)

Structure (SMILES)	LC50 in vapor-phase assays without physical barriers [1]	GST Inhibition λ340 (%) [3]	CAT Inhibition λ570 nm (%) [4] [%]	Contact Toxicity LD90 (95% FL) [5]	AChE inhibition type (Lineweaver–Burk plots), in words [6]	AChE Effect Inhibitor Type [6]	AChE Effect IC50 ± SD [6] [µg/mL]	Ki [6] [µM]	LC50 [2, 9]	EC90 [2, 10]	Contact Toxicity LD50 (95% FL) [5]	Contact Toxicity LD50i (LC-95%) [5] [µg/Adult]	LC50 [2, 12] [µg/mL]	further results
CC1=CC[C@H](C(C)C)C=C1 [Compound C14, R-(−)-α-Phellandrene]	72.7 mg/L (≈ 534 µM)	–	–	–	–	–	–	–	–	–	–	–	–	Fumigant Toxicity LC50 (95% FL) ([2]; S. zeamais adults, 24 h after exposure): 88.87 (69.70–108.27) mg L^−1; LC50 ([2]; read-out: Fumigant Toxicity LC50 (95% FL), S. zeamais adults, 24 h after exposure): 652 µM
C/C=C/c1ccc(OC)cc1 [Compound C29, trans-Anethol]	–	~ 17.5% and 17.5%	23.3	46.08 (41.56–52.95) µg/Adult	competitive inhibition	C	4.24 ± 0.36	43.6 ± 3.46	–	–	–	–	–	AChE potency, times more potent than isomer estragole (C11) ([6]; ratio of IC50): 6.5 times
Cc1ccc(C(C)C)cc1 [Compound C12, p-Cymene]	23.3 mg/L (≈ 174 µM)	–	–	–	–	–	–	–	28.7 µg/mL and 214 µM	47 µg/mL and 350 µM	–	–	–	–
CC1=CC[C@@](O)(C(C)C)CC1 [Compound C5, R-(−)-Terpinen-4-ol]	–	–	–	24.82 (22.64–29.63) µg/Adult	–	–	–	–	4.03 µg/mL and 26.1 µM	6.13 µg/mL and 39.8 µM	19.64 (18.42–21.45) µg/Adult	–	–	Fumigant LC50 reported in 7-day exposure assays ([1]; 7-day exposure): 4.79 µg/mL; LC50 [2, 11]: 4.03 µg/mL
CC(C)=C1CC[C@H](C)CC1=O [Compound C2, S-(−)-Pulegone]	–	4.3%	2.4	9.64 (9.05–10.54) µg/Adult	competitive inhibition	C	36.60 ± 3.29	50.3 ± 0.74	0.97 µg/mL and 6.37 µM	1.68 µg/mL and 11.1 µM	–	7.44	0.97	AChE inhibition, times higher than the R-enantiomer (C1) [6]: 2.3 times
C=CCc1ccc(O)c(OC)c1 [Compound C26, Eugenol]	–	24.3%	19.9	30.82 (28.35–34.42) µg/Adult	–	–	–	–	–	–	20.9 (19.22–22.65) µg/Adult	20.90	–	–
CC1=CCC2CC1C2(C)C (stereo not drawn) [Compound C19, α-Pinene]	120 µL/L	–	–	–	–	–	–	–	110 µg/mL and 810 µM	179 µg/mL and 1.31 mM	–	–	–	–
C=C(C)[C@@H]1CC[C@@H](C)C[C@H]1O [Compound C7, 1R,2S,5R-Isopulegol]	–	10.6%	–	26.65 (25.07–28.90) µg/Adult	competitive inhibition	C	18.15 ± 0.64	282 ± 4.14	4.73 µg/mL and 30.7 µM	7.19 µg/mL and 46.6 µM	–	–	4.73	–
Cc1ccc(C(C)C)cc1O [Compound C25, Carvacrol]	–	19.3%	–	13.45 (12.19–15.38) µg/Adult	–	–	–	–	–	–	–	8.71	–	AChE inhibition [6]: 46.85%; oral LD50 [7]: 2462.23 mg/kg
C=C(C)[C@H]1CC=C(C)C(=O)C1 [Compound C3, S-(+)-Carvone]	–	23.0%	–	23.236 (20.46–27.42) µg/Adult	competitive inhibition	C	66.27 ± 4.35	56.76 ± 0.18	2.87 µg/mL and 19.1 µM	5.31 µg/mL and 35.4 µM	12.68 (10.91–14.60) µg/Adult	12.68	2.87	LC50 [2, 11]: 2.87 µg/mL
CC(C)=C1CC[C@@H](C)CC1=O [Compound C1, R-(+)-Pulegone]	–	2.4%	4.3	7.40 (6.79–8.28) µg/Adult	–	–	–	–	0.58 µg/mL and 3.81 µM	0.92 µg/mL and 6.07 µM	–	4.85	0.58	AChE inhibition [6]: 33.52%; LD50 (i.p.) ([7]; i.p.): 73 mg/kg; LD50 (i.v.) ([7]; i.v.): 80 mg/kg; oral LD50 [7]: 810 mg/kg
CCCCCCCCC [Compound C20, n-Nonane]	–	–	–	–	–	–	–	–	109 µg/mL and 851 µM	172 µg/mL and 1.34 mM	21.42 µg/Adult	–	–	Contact LD50 previously reported for 7-day assays [8]: 17.62 µg/adult
CC1=CC=C(C(C)C)CC1 [Compound C13, α-Terpinene]	56.2 mg/L (≈ 413 µM)	–	–	–	–	–	–	–	60.2 µg/mL and 442 µM	96.2 µg/mL and 706 µM	–	–	–	–
